Patent US5312818A, “Method of protecting against and/or treating ulcerative gastrointestinal conditions using a thromboxane A2 receptor antagonist and combination useful in preventing and/or treating ulcers and/or inflammation” (E. R. Squibb & Sons, Inc., priority 1992, dated 1994)
Where two headings read alike, the source gives them in different places.

Experiments:
[1] = system: aspirin-induced gastric ulcers; test: aspirin-induced gastric ulcers in rats; format: in vivo, male Sprague-Dawley rats; conditions: for inhibition of gastric erosions: aspirin treated rats; for % Ulcer Inhibition: Table 1
Protocol: (§1) The following experiment was carried out to evaluate thromboxane receptor involvement in other models of gastro-intestinal ulcer.
[…] In each of these experiments, a dose of SQ 33,961 or vehicle (9.5% ethanol in 0.02% Na2 CO3, pH 9; 5 mL/kg) was administered by intraperitoneal injection 60 minutes before administration of aspirin, aspirin vehicle (1% methyl cellulose; 5 mL/kg, p.o.), indomethacin, or indomethacin vehicle (3.2% Na2 CO3, pH 8; 5 mL/kg, s.c.) in fasted male Sprague-Dawley rats (174-352 g). Three hours later, the rats were sacrificed by CO2 asphyxiation, the stomachs excised and opened, the lumen rinsed with saline, and the number and areas of gastric lesions measured.
*Aspirin Dose = 200 mg/kg, p.o. 1 hour after dosing with Test Agent. Rats
were sacrificed and ulcers measured 3 hours after aspirin administration.

[2] = system: indomethacin-induced gastric ulcers; format: in vivo, male Sprague-Dawley rats; conditions: for inhibition of gastric erosions: indomethacin treated rats; for % Ulcer Inhibition: Table 1
Protocol: as §1
In two studies, SQ 33,961 (1 and 10 mg/kg, i.p.) was evaluated in models of gastric ulcer induced by indomethacin (20 mg/kg, s.c.) and aspirin (200 mg/kg, p.o.). In each of these experiments, a dose of SQ 33,961 or vehicle (9.5% ethanol in 0.02% Na2 CO3, pH 9; 5 mL/kg) was administered by intraperitoneal injection 60 minutes before administration of aspirin, aspirin vehicle (1% methyl cellulose; 5 mL/kg, p.o.), indomethacin, or indomethacin vehicle (3.2% Na2 CO3, pH 8; 5 mL/kg, s.c.) in fasted male Sprague-Dawley rats (174-352 g). Three hours later, the rats were sacrificed by CO2 asphyxiation, the stomachs excised and opened, the lumen rinsed with saline, and the number and areas of gastric lesions measured.

carrageenan paw edema = carrageenan paw edema model in rats; format: in vivo; conditions: for effect on development of paw edema (in words): 10 mg/kg i.p.; for Paw Volume 3 hours after Carrageenan injection: SQ 33,961 10 mg/kg i.p. and/or indomethacin 10 mg/kg i.p., 7-8 rats
Protocol: Paw volumes were measured before and hourly after carageenan injection in the 4 groups (N=7-8 each).

[3] = system: taurocholic acid-induced ulcers; test: taurocholic acid-induced gastric ulcers in rats; format: in vivo; conditions: i.p.
Protocol: The following experiment was conducted to determine the cytoprotective potential of the thromboxane receptor antagonist SQ 33,961 on taurocholic acid-induced ulcers in rats.
Fasted rats were treated with either vehicle (9.5% ethanol in 0.02% Na2 CO3, pH 9; 5 mL/kg, i.p.) or SQ 33,961 (0.01 to 10 mg/kg, i.p.) 60 minutes before administration of either vehicle (0.2N HCl, pH 2; 1.0 mL, p.o.) or taurocholic acid (100 mM, pH 2; 1.0 mL, p.o.). One hour later, rats were sacrificed and gastric lesion number and areas measured. There were no gastric erosions in the groups of rats challenged with the taurocholic acid vehicle.

CC(=O)Oc1ccccc1C(=O)O [Aspirin, reference compound]
Average Gastric Lesion Area ([1]; Aspirin (200 mg/kg, p.o.) + Vehicle (CONTROL), 11 rats, text calls it lesion area in mm^2): 10.5 ± 2.01 | severity of gastric lesions (in words) ([1]; aspirin 200 mg/kg, p.o. versus indomethacin 20 mg/kg, s.c.): more severe gastric lesions than indomethacin | Average total lesion area ([1]; aspirin 200 mg/kg, p.o., three hours, N=11): 10.5±2.1 mm^2

O=C(O)Cc1ccc(CCNS(=O)(=O)c2ccc(Cl)cc2)cc1 [BM 13,505, 4-[2-(4-chlorobenzenesulfonamido)ethyl]phenylacetic acid, reference compound]
Average Gastric Lesion Area ([1]; 20.00 mg/kg, i.p., N=9, Table 3, aspirin 200 mg/kg, p.o., vehicle 11.18 ± 2.35): 4.68 ± 1.63 mm^2 | effect on aspirin-induced gastric erosions (in words) ([1]; aspirin 200 mg/kg, p.o.): significantly diminished aspirin-induced gastric erosions

O=C(O)c1ccc(OCCn2ccnc2)cc1 [Dazoxiben, reference compound]
Average Gastric Lesion Area ([1]; 50.0 mg/kg, i.p., N=6, Table 3, aspirin 200 mg/kg, p.o.): 25.40 ± 8.50 mm^2 | effect on aspirin-induced gastric erosions (in words) ([1]; aspirin 200 mg/kg, p.o.): did not diminish aspirin-induced gastric erosions

COc1ccc2c(c1)c(CC(=O)O)c(C)n2C(=O)c1ccc(Cl)cc1 [Indomethacin, reference compound]
Gastric lesion area (mm^2) ([2]; Indomethacin (20 mg/kg, s.c.) + Vehicle (CONTROL), 16 rats, text calls it lesion area in mm^2): 2.90 ± 0.81 | Average total lesion area ([2]; indomethacin 20 mg/kg, s.c., three hours, N=16): 2.9±0.8 mm^2 | effect on development of paw edema (in words) (carrageenan paw edema): significantly inhibited edema formation | Paw Volume 3 hours after Carrageenan injection (carrageenan paw edema): 2.2 ± 0.08 mL

O=C(O)CCc1ccccc1C[C@@H]1[C@H](c2nc(C(=O)NCCCCC3CCCCC3)co2)[C@H]2CC[C@@H]1O2 [SQ 33,961, [1S-(1α,2α,3α,4α)]-2-[[3-[4-[[(4-cyclohexylbutyl)amino]carbonyl]-2-oxazolyl]-7-oxabicyclo[2.2.1]hept-2-yl]methyl]benzenepropanoic acid]
inhibition of gastric erosions ([2]; 1 mg/kg, i.p.): about 70% | inhibition of gastric erosions ([2]; 10 mg/kg, i.p.): ~95% | Gastric lesion area (mm^2) ([2]; Indomethacin (20 mg/kg, s.c.) + 1 mg/kg, i.p., 15 rats): 0.94 ± 0.41 | % Ulcer Inhibition ([2]; Indomethacin (20 mg/kg, s.c.) + 1 mg/kg, i.p.): 68% | Gastric lesion area (mm^2) ([2]; Indomethacin (20 mg/kg, s.c.) + 10 mg/kg, i.p., 15 rats): 0.08 ± 0.07 | % Ulcer Inhibition ([2]; Indomethacin (20 mg/kg, s.c.) + 10 mg/kg, i.p.): 97% | Average Gastric Lesion Area ([1]; 0.1 mg/kg, i.p., N=6, Table 3, aspirin 200 mg/kg, p.o.): 6.21 ± 1.66 mm^2 | Average Gastric Lesion Area ([1]; 1.0 mg/kg, i.p., N=9, Table 3, aspirin 200 mg/kg, p.o.): 2.86 ± 1.02 mm^2 | inhibition of gastric erosions ([1]; 1 mg/kg, i.p.): about 70% | Average Gastric Lesion Area ([1]; 10.0 mg/kg, i.p., N=9, Table 3, aspirin 200 mg/kg, p.o.): 0.62 ± 0.34 mm^2 | inhibition of gastric erosions ([1]; 10 mg/kg, i.p.): ~95% | Average Gastric Lesion Area ([1]; Aspirin (200 mg/kg, p.o.) + 1 mg/kg, i.p., 9 rats): 2.86 ± 1.02 | % Ulcer Inhibition ([1]; Aspirin (200 mg/kg, p.o.) + 1 mg/kg, i.p.): 73% | Average Gastric Lesion Area ([1]; Aspirin (200 mg/kg, p.o.) + 10 mg/kg, i.p., 9 rats): 0.62 ± 0.34 | % Ulcer Inhibition ([1]; Aspirin (200 mg/kg, p.o.) + 10 mg/kg, i.p.): 94% | effect on aspirin-induced gastric erosions (in words) ([1]; aspirin 200 mg/kg, p.o.): dose related reductions in gastric erosions | reduction of gastric lesion area (in words) ([3]; 0.01 to 10 mg/kg): dose-related reduction of gastric lesion area | ED50 ([3]; Rattus norvegicus, ip, 1 h, 60 minutes before taurocholic acid (100 mM, pH 2; 1.0 mL, p.o.), measured one hour later, read-out: ID50, reduction of gastric lesion area): 0.012 mg/kg | effect on development of paw edema (in words) (carrageenan paw edema): no significant effect on the development of paw edema | Paw Volume 3 hours after Carrageenan injection (carrageenan paw edema): 2.6 ± 0.11 mL | effect on antiphlogistic activity of indomethacin (in words) (carrageenan paw edema; SQ 33,961 10 mg/kg i.p., indomethacin 10 mg/kg i.p.): this antiphlogistic activity was not inhibited
